Legend:
Phytophthora infestans = experiment: whole plant or invertebrate; format: in vivo; details: for efficacy: tomato plants, protective spray, 10 ppm active ingredient, evaluation 3 days after inoculation, 0% = control, 100% = no infection; for pest or weed control at 10 ppm: Phytophthora infestans, in Solanum lycopersicum, 72 h, read-out: efficacy
Plasmopara viticola = experiment: Plasmopara test (grapevine)/protective; format: in vivo; details: grapevine plants, protective spray, 10 ppm active ingredient, evaluation 6 days after inoculation, 0% = control, 100% = no infection; for pest or weed control at 10 ppm: Plasmopara viticola, 144 h, read-out: efficacy
Procedure: Plasmopara Test (Grapevine)/Protective
To prepare an appropriate active ingredient preparation, 1 part by weight of active ingredient is mixed with the stated amounts of solvent and emulsifier, and the concentrate is diluted with water to the desired concentration.
To test for protective efficacy, young plants are sprayed with the active ingredient preparation at the stated application rate. After the spray coating has dried on, the plants are inoculated with an aqueous spore suspension of Plasmopara viticola and then remain in an incubation cabinet at about 20° C. and 100% relative atmospheric humidity for 1 day. The plants are then placed in a greenhouse at approx. 21° C. and approx. 90% air humidity for 4 days. The plants are then moistened and placed in an incubation cabinet for 1 day.
Evaluation follows 6 days after the inoculation.

[1] = for logp [b]: pH 2.7; for logp [a]: pH 2.3; for logp [c]: pH 7.8
Text: (§1) The determination is effected in the acidic range at pH 2.3 using 0.1% aqueous phosphoric acid and acetonitrile as eluents; linear gradient from 10% acetonitrile to 95% acetonitrile. • ^[b] The LC-MS determination in the acidic range is effected at pH 2.7 using 0.1% aqueous formic acid and acetonitrile (contains 0.1% formic acid) as eluents; linear gradient from 10% acetonitrile to 95% acetonitrile. • ^[c] The LC-MS determination in the neutral range is effected at pH 7.8 using 0.001 molar aqueous ammonium hydrogencarbonate solution and acetonitrile as eluents; linear gradient from 10% acetonitrile to 95% acetonitrile.
(§2) The calibration is effected with unbranched alkan-2-ones (having 3 to 16 carbon atoms) with known log P values (determination of the log P values using the retention times by linear interpolation between two successive alkanones).

Peronospora brassicae = experiment: Peronospora test (rapeseed)/seed treatment; format: in vivo; details: 50 g/dt active ingredient, greenhouse, infected leaf area per plant, 0% = control, 100% = no infestation
Procedure: Peronospora Test (Rapeseed)/Seed Treatment
The test was carried out under greenhouse conditions.
To produce an active ingredient preparation, the active ingredient was dissolved in N-methyl-2-pyrrolidone and the concentrate was diluted with water to the desired concentration. The rapeseeds treated with this solution were sown in 6*6 cm pots which had been filled to a height of 4 cm with a 1:1 mixture of steam-treated soil and sand. Then the plants were cultivated at 10° C.
After 14 days, the plants were inoculated with an aqueous spore suspension of Peronospora brassicae. Subsequently, the plants were placed in a greenhouse at approx. 15° C. and 100% air humidity for 7 days.
The evaluation was effected by assessing the infected leaf area per plant. 0% means an efficiency which corresponds to that of the control, while an efficiency of 100% means that no infestation is observed.

Text for physchem: as §1, §2

In the case of `CS(=O)(=O)Nc1ccc(C2CC(c3csc(C4CCN(C(=O)Cn5nc(C(F)F)cc5C(F)F)CC4)n3)=NO2)cc1` (racemic) [I-40], the efficacy (Phytophthora infestans) is reported as 95%, the efficacy (Plasmopara viticola) is reported as 91% and the “logp [b]” value [1] is reported as 2.41^[b].

In the case of `O=C(Cn1nc(C(F)F)cc1C(F)F)N1CCC(c2nc(-c3cc(-c4ccccc4)on3)cs2)CC1` [I-3], the efficacy (Phytophthora infestans) is reported as 100%, the efficacy (Plasmopara viticola) is reported as 100% and the “logp [b]” value [1] is reported as 3.66^[b].

For `C#CCOc1cccc(C2CC(c3csc(C4CCN(C(=O)Cn5nc(C(F)F)cc5C(F)F)CC4)n3)=NO2)c1` (racemic) [I-21], the efficacy (Phytophthora infestans) was 98%, the efficacy (Plasmopara viticola) was 100% and the “logp [a]” value [1] was 3.24^[a]. For the same compound, the “logp [c]” value [1] was 3.16^[c];.

In the case of `O=C(Cn1nc(C(F)F)cc1C(F)F)N1CCC(c2nc(C3=NOC(c4ccccc4)C3)cs2)CC1` (racemic) [I-1], the efficacy (Phytophthora infestans) is reported as 95%, the efficacy (Plasmopara viticola) is reported as 100% and the “logp [b]” value [1] is reported as 3.17^[b];. For the same compound, the “logp [c]” value [1] was 3.11^[c] and the efficiency (Peronospora brassicae) was 100%.

With `O=C(Cn1nc(C(F)F)cc1C(F)F)N1CCC(c2nc(C3=NOC(c4c(F)cccc4F)C3)cs2)CC1` (racemic) [I-2] the efficacy (Phytophthora infestans) was 99%, the efficacy (Plasmopara viticola) was 100% and the “logp [b]” value [1] was 3.14^[b].

For `CC(=O)c1cccc(C2CC(c3csc(C4CCN(C(=O)Cn5nc(C(F)F)cc5C(F)F)CC4)n3)=NO2)c1` (racemic) [I-8], the efficacy (Phytophthora infestans) was 97%, the efficacy (Plasmopara viticola) was 99% and the “logp [b]” value [1] was 2.78^[b].

With `CCC#CCOc1ccccc1C1CC(c2csc(C3CCN(C(=O)Cn4nc(C(F)F)cc4C(F)F)CC3)n2)=NO1` (racemic) [I-25] the efficacy (Phytophthora infestans) was 95%, the efficacy (Plasmopara viticola) was 74% and the “logp [b]” value [1] was 3.91^[b].

`O=C(Cn1nc(C(F)F)cc1C(F)F)N1CCC(F)(c2nc(C3=NOC(c4ccccc4)C3)cs2)CC1` (stereo not drawn) [I-5, 2-[3,5-bis(difluoromethyl)-1H-pyrazol-1-yl]-1-{4-fluoro-4-[4-(5-phenyl-4,5-dihydro-1,2-oxazol-3-yl)-1,3-thiazol-2-yl]piperidin-1-yl}ethanone] gave a pest or weed control at 10 ppm (Phytophthora infestans) of 93%, a pest or weed control at 10 ppm (Plasmopara viticola) of 97% and a chromatographic logP (physchem; pH 2.7, log P (HCOOH)) of 3.41. For the same compound, the chromatographic logP (physchem; pH 2.7, logp [b]) was 3.41.

For `CC(C)=CCOc1ccccc1C1CC(c2csc(C3CCN(C(=O)Cn4nc(C(F)F)cc4C(F)F)CC3)n2)=NO1` (stereo not drawn) [I-20, 2-[3,5-Bis(difluoromethyl)-1H-pyrazol-1-yl]-1-{4-[4-(5-{2-[(3-methylbut-2-en-1-yl)oxy]phenyl}-4,5-dihydro-1,2-oxazol-3-yl)-1,3-thiazol-2-yl]piperidin-1-yl}ethanone], the pest or weed control at 10 ppm (Phytophthora infestans) was 95%, the pest or weed control at 10 ppm (Plasmopara viticola) was 98% and the chromatographic logP (physchem; pH 2.7, logp [b]) was 4.19. The chromatographic logP (physchem; pH 7.8, logp [c]) was 4.11.

For `Nc1ccccc1C1CC(c2csc(C3CCN(C(=O)Cn4nc(C(F)F)cc4C(F)F)CC3)n2)=NO1` (stereo not drawn) [I-41, 1-(4-{4-[5-(2-Aminophenyl)-4,5-dihydro-1,2-oxazol-3-yl]-1,3-thiazol-2-yl}piperidin-1-yl)-2-[3,5-bis(difluoromethyl)-1H-pyrazol-1-yl]ethanone], the pest or weed control at 10 ppm (Phytophthora infestans) was 94%, the pest or weed control at 10 ppm (Plasmopara viticola) was 100% and the chromatographic logP (physchem; pH 2.3) was 2.7. It also gave a chromatographic logP (physchem; pH 7.8, logp [c]) of 2.71.

With `O=C(Cn1nc(C(F)F)cc1C(F)F)N1CCC(c2nc(C3=NOC(c4cccc(O)c4)C3)cs2)CC1` (racemic) [I-42] the efficacy (Phytophthora infestans) was 94%, the efficacy (Plasmopara viticola) was 97% and the “logp [a]” value [1] was 2.43^[a]. The “logp [c]” value [1] was 2.45^[c];.

In the case of `C#CCOc1ccc(C2CC(c3csc(C4CCN(C(=O)Cn5nc(C(F)F)cc5C(F)F)CC4)n3)=NO2)cc1` (racemic) [I-22], the efficacy (Phytophthora infestans) is reported as 98%, the efficacy (Plasmopara viticola) is reported as 97% and the “logp [a]” value [1] is reported as 3.14^[a];. For the same compound, the “logp [c]” value [1] was 3.08^[c].

In the case of `O=C(Cn1nc(C(F)F)cc1C(F)F)N1CCC(c2nc(C3=NOC(c4ccccc4O)C3)cs2)CC1` (stereo not drawn) [I-9, 2-[3,5-Bis(difluoromethyl)-1H-pyrazol-1-yl]-1-(4-{4-[5-(2-hydroxyphenyl)-4,5-dihydro-1,2-oxazol-3-yl]-1,3-thiazol-2-yl}piperidin-1-yl)ethanone], the pest or weed control at 10 ppm (Phytophthora infestans) is reported as 96%, the pest or weed control at 10 ppm (Plasmopara viticola) is reported as 99% and the chromatographic logP (physchem; pH 2.3) is reported as 2.58. For the same compound, the chromatographic logP (physchem; pH 7.8, logp [c]) was 2.6.

In the case of `O=Cc1ccccc1C1CC(c2csc(C3CCN(C(=O)Cn4nc(C(F)F)cc4C(F)F)CC3)n2)=NO1` (stereo not drawn) [I-26, 2-{3-[2-(1-{[3,5-Bis(difluoromethyl)-1H-pyrazol-1-yl]acetyl}piperidin-4-yl)-1,3-thiazol-4-yl]-4,5-dihydro-1,2-oxazol-5-yl}benzaldehyde], the pest or weed control at 10 ppm (Phytophthora infestans) is reported as 97%, the pest or weed control at 10 ppm (Plasmopara viticola) is reported as 100% and the chromatographic logP (physchem; pH 2.7, logp [b]) is reported as 2.98.

With `O=C(Cn1nc(C(F)F)cc1C(F)F)N1CCC(F)(c2nc(C3=NOC(c4c(F)cccc4F)C3)cs2)CC1` (racemic) [I-6] the efficacy (Phytophthora infestans) was 94%, the efficacy (Plasmopara viticola) was 100% and the “logp [b]” value [1] was 3.43^[b];. The “logp [c]” value [1] was 3.34^[c] and the efficiency (Peronospora brassicae) was 100%.

For `O=Cc1cccc(C2CC(c3csc(C4CCN(C(=O)Cn5nc(C(F)F)cc5C(F)F)CC4)n3)=NO2)c1` (racemic) [I-23], the efficacy (Phytophthora infestans) was 97%, the efficacy (Plasmopara viticola) was 99% and the “logp [b]” value [1] was 2.78^[b].

In the case of `C#CCOc1ccccc1C1CC(c2csc(C3CCN(C(=O)Cn4nc(C(F)F)cc4C(F)F)CC3)n2)=NO1` (racemic) [I-39], the efficacy (Phytophthora infestans) is reported as 99%, the efficacy (Plasmopara viticola) is reported as 99% and the “logp [a]” value [1] is reported as 3.28^[a]. The “logp [c]” value [1] was 3.23^[c];.

`COCCOc1ccccc1C1CC(c2csc(C3CCN(C(=O)Cn4nc(C(F)F)cc4C(F)F)CC3)n2)=NO1` (stereo not drawn) [I-19, 2-[3,5-Bis(difluoromethyl)-1H-pyrazol-1-yl]-1-[4-(4-{5-[2-(2-methoxyethoxy)phenyl]-4,5-dihydro-1,2-oxazol-3-yl}-1,3-thiazol-2-yl)piperidin-1-yl]ethanone] showed a pest or weed control at 10 ppm (Phytophthora infestans) of 96%, a pest or weed control at 10 ppm (Plasmopara viticola) of 96% and a chromatographic logP (physchem; pH 2.7, logp [b]) of 3.26. It also gave a chromatographic logP (physchem; pH 7.8, logp [c]) of 3.18.

Work on `CC(=O)c1ccccc1C1CC(c2csc(C3CCN(C(=O)Cn4nc(C(F)F)cc4C(F)F)CC3)n2)=NO1` (stereo not drawn) [I-7, 1-(4-{4-[5-(2-Acetylphenyl)-4,5-dihydro-1,2-oxazol-3-yl]-1,3-thiazol-2-yl}piperidin-1-yl)-2-[3,5-bis(difluoromethyl)-1H-pyrazol-1-yl]ethanone] yielded a pest or weed control at 10 ppm (Phytophthora infestans) of 97%, a pest or weed control at 10 ppm (Plasmopara viticola) of 100% and a chromatographic logP (physchem; pH 2.7, logp [b]) of 3.08. It also gave an efficiency (Peronospora brassicae) of 100%.

In the case of `O=C(Cn1nc(C(F)F)cc1C(F)F)N1CCC(c2nc(C3=NOC(c4ccccc4[N+](=O)[O-])C3)cs2)CC1` (stereo not drawn) [I-10, 2-[3,5-Bis(difluoromethyl)-1H-pyrazol-1-yl]-1-(4-{4-[5-(2-nitrophenyl)-4,5-dihydro-1,2-oxazol-3-yl]-1,3-thiazol-2-yl}piperidin-1-yl)ethanone], the pest or weed control at 10 ppm (Phytophthora infestans) is reported as 97%, the pest or weed control at 10 ppm (Plasmopara viticola) is reported as 100% and the chromatographic logP (physchem; pH 2.7, logp [b]) is reported as 3.19.

In the case of `CC#CCOc1cccc(C2CC(c3csc(C4CCN(C(=O)Cn5nc(C(F)F)cc5C(F)F)CC4)n3)=NO2)c1` (racemic) [I-15], the efficacy (Phytophthora infestans) is reported as 95%, the efficacy (Plasmopara viticola) is reported as 93% and the “logp [a]” value [1] is reported as 3.29^[a]. The “logp [c]” value [1] was 3.33^[c];.

Reference: patent US9167821B2 (priority 2009, dated 2015)
